According to PubChem BioAssay AID2060500 (Molecular Pharmacology Branch, DTP, NCI, 2025):

Test system: 596521-263-R-J1-PDC complex spheroids, viability % of control
Assay: Anticancer human tumor 596521-263-R-J1-PDC patient-derived soft tissue sarcoma cell line growth inhibition [GQUAD]
Settings: for IC50: curve of first compound; for viability, T/C: stronger effect = lower value; active = viability on the fitted dose curve at most 10% of control; inactive = the rest
Method in brief: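 Viability of tumor cells grown as complex spheroids with endothelial and stromal cells, exposed to drug combinations. Top concentration at or near clinical Cmax (else 10 microM), diluted in half-log increments.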

[1] = second compound 0.0316 µM, first compound 0.0316 µM
[2] = second compound 0.0316 µM, first compound 0.1 µM
[3] = second compound 0.0316 µM, first compound 0.316 µM
[4] = second compound 0.0316 µM, first compound 1 µM
[5] = second compound 0.0316 µM, first compound 3.16 µM
[6] = second compound 0.0316 µM, first compound 10 µM
[7] = second compound 0.1 µM, first compound 0.0316 µM
[8] = second compound 0.1 µM, first compound 0.1 µM
[9] = second compound 0.1 µM, first compound 0.316 µM
[10] = second compound 0.1 µM, first compound 1 µM
[11] = second compound 0.1 µM, first compound 3.16 µM
[12] = second compound 0.1 µM, first compound 10 µM
[13] = second compound 0.316 µM, first compound 0.0316 µM
[14] = second compound 0.316 µM, first compound 0.1 µM
[15] = second compound 0.316 µM, first compound 0.316 µM
[16] = second compound 0.316 µM, first compound 1 µM
[17] = second compound 0.316 µM, first compound 3.16 µM
[18] = second compound 0.316 µM, first compound 10 µM
[19] = second compound 1 µM, first compound 0.0316 µM
[20] = second compound 1 µM, first compound 0.1 µM
[21] = second compound 1 µM, first compound 0.316 µM
[22] = second compound 1 µM, first compound 1 µM
[23] = second compound 1 µM, first compound 3.16 µM
[24] = second compound 1 µM, first compound 10 µM
[25] = second compound 3.16 µM, first compound 0.0316 µM
[26] = second compound 3.16 µM, first compound 0.1 µM
[27] = second compound 3.16 µM, first compound 0.316 µM
[28] = second compound 3.16 µM, first compound 1 µM
[29] = second compound 3.16 µM, first compound 3.16 µM
[30] = second compound 3.16 µM, first compound 10 µM
[31] = second compound 10 µM, first compound 0.0316 µM
[32] = second compound 10 µM, first compound 0.1 µM
[33] = second compound 10 µM, first compound 0.316 µM
[34] = second compound 10 µM, first compound 1 µM
[35] = second compound 10 µM, first compound 3.16 µM
[36] = second compound 10 µM, first compound 10 µM
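Also: spheroids exposed to drugs for 7 days before viability reading.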
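For viability, T/C in this document: 100% = DMSO vehicle control viability.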

CC(C)(O)C1CCC(Nc2ccc3ncc(-c4cccc(C(F)(F)F)c4)n3n2)CC1 (stereo not drawn) + Cc1cnc(CNC(=O)c2c(=O)c3ccc(N4CCCN(C)CC4)nc3n3c2sc2ccccc23)cn1
inactive: viability, T/C [1] 89.8% | viability, T/C [2] 82.3% | viability, T/C [3] 88.3% | viability, T/C [4] 77.7% | viability, T/C [5] 18.8% | viability, T/C [6] 14.4% | viability, T/C [7] 81.9% | viability, T/C [8] 79.9% | viability, T/C [9] 74.2% | viability, T/C [10] 59.5% | viability, T/C [11] 20.5% | viability, T/C [12] 18.2% | viability, T/C [13] 72.3% | viability, T/C [14] 69.5% | viability, T/C [15] 68.6% | viability, T/C [16] 50.5% | viability, T/C [17] 18.4% | viability, T/C [18] 15.9% | viability, T/C [19] 57.6% | viability, T/C [20] 53.6% | viability, T/C [21] 63.1% | viability, T/C [22] 47.8% | viability, T/C [23] 21.7% | viability, T/C [24] 15.1% | viability, T/C [25] 46.6% | viability, T/C [26] 46.5% | viability, T/C [27] 51.7% | viability, T/C [28] 45.2% | viability, T/C [31] 33.3% | viability, T/C [32] 13.8% | viability, T/C [33] 41.2% | viability, T/C [34] 0.19%
0.83 µM: IC50 (second compound 1 µM)
active: viability, T/C [29] 0.12% | viability, T/C [30] 0.13% | viability, T/C [35] 0.23% | viability, T/C [36] 0.18%
1.72 µM: IC50 (second compound 0.0316 µM)
1.32 µM: IC50 (second compound 0.1 µM)
1.01 µM: IC50 (second compound 0.316 µM)
< 0.0316 µM: IC50 (second compound 3.16 µM) | IC50 (second compound 10 µM)

O=c1[nH]cc(F)c(=O)[nH]1 + CN(C)c1ccc(Nc2c3ccc(NC(=O)CCN4CCCC4)cc3nc3cc(NC(=O)CCN4CCCC4)ccc23)cc1
inactive: viability, T/C [1] 111% | viability, T/C [2] 118% | viability, T/C [3] 94.2% | viability, T/C [4] 94.4% | viability, T/C [5] 109% | viability, T/C [6] 91.1% | viability, T/C [7] 102% | viability, T/C [8] 117% | viability, T/C [9] 105% | viability, T/C [10] 97% | viability, T/C [11] 110% | viability, T/C [12] 89.7% | viability, T/C [13] 107% | viability, T/C [14] 92.1% | viability, T/C [15] 95.4% | viability, T/C [16] 93.9% | viability, T/C [17] 95.4% | viability, T/C [18] 96.4% | viability, T/C [19] 98.9% | viability, T/C [20] 101% | viability, T/C [21] 102% | viability, T/C [22] 111% | viability, T/C [23] 105% | viability, T/C [24] 98.2% | viability, T/C [25] 89.4% | viability, T/C [26] 89.6% | viability, T/C [27] 103% | viability, T/C [28] 85.6% | viability, T/C [29] 110% | viability, T/C [30] 80% | viability, T/C [31] 66.5% | viability, T/C [32] 67.4% | viability, T/C [33] 63.1% | viability, T/C [34] 75.2% | viability, T/C [35] 68.4% | viability, T/C [36] 64.1%
> 10 µM: IC50 (second compound 0.0316 µM) | IC50 (second compound 0.1 µM) | IC50 (second compound 0.316 µM) | IC50 (second compound 1 µM) | IC50 (second compound 3.16 µM) | IC50 (second compound 10 µM)

Cc1cccc(N(C)C(=O)C2C(O)CCN2c2nc(C)cc(C(F)(F)F)c2C#N)c1 (stereo not drawn) + Cc1[nH]c2ccc(F)cc2c1-c1nc2c3cccnc3c3ncccc3c2[nH]1
inactive: viability, T/C [1] 106% | viability, T/C [2] 93.3% | viability, T/C [3] 92.7% | viability, T/C [4] 101% | viability, T/C [5] 98.1% | viability, T/C [6] 91.6% | viability, T/C [7] 98.7% | viability, T/C [8] 99.1% | viability, T/C [9] 112% | viability, T/C [10] 85.9% | viability, T/C [11] 104% | viability, T/C [12] 95.1% | viability, T/C [13] 102% | viability, T/C [14] 100% | viability, T/C [15] 91.4% | viability, T/C [16] 88.4% | viability, T/C [17] 110% | viability, T/C [18] 93.7% | viability, T/C [19] 91.4% | viability, T/C [20] 89.4% | viability, T/C [21] 93.9% | viability, T/C [22] 99.4% | viability, T/C [23] 109% | viability, T/C [24] 91.1% | viability, T/C [25] 85.8% | viability, T/C [26] 92.5% | viability, T/C [27] 83.1% | viability, T/C [28] 88% | viability, T/C [29] 93.4% | viability, T/C [30] 83.1% | viability, T/C [31] 70.4% | viability, T/C [32] 73.5% | viability, T/C [33] 83.8% | viability, T/C [34] 75% | viability, T/C [35] 83.7% | viability, T/C [36] 91.4%
> 10 µM: IC50 (second compound 0.0316 µM) | IC50 (second compound 0.1 µM) | IC50 (second compound 0.316 µM) | IC50 (second compound 1 µM) | IC50 (second compound 3.16 µM) | IC50 (second compound 10 µM)

COc1ccc([C@@H](O)c2cc(-c3ncnc4cc(N5CCOCC5)ccc34)c(F)cc2Cl)nn1 + Cc1[nH]c2ccc(F)cc2c1-c1nc2c3cccnc3c3ncccc3c2[nH]1
inactive: viability, T/C [1] 96.5% | viability, T/C [2] 89% | viability, T/C [3] 94.6% | viability, T/C [4] 77.9% | viability, T/C [5] 69.3% | viability, T/C [6] 52% | viability, T/C [7] 98.6% | viability, T/C [8] 89.1% | viability, T/C [9] 97.7% | viability, T/C [10] 77.5% | viability, T/C [11] 64.7% | viability, T/C [12] 55.4% | viability, T/C [13] 94.2% | viability, T/C [14] 105% | viability, T/C [15] 95.9% | viability, T/C [16] 89.6% | viability, T/C [17] 72.2% | viability, T/C [18] 56.5% | viability, T/C [19] 94.7% | viability, T/C [20] 93.8% | viability, T/C [21] 95.8% | viability, T/C [22] 81.2% | viability, T/C [23] 69.1% | viability, T/C [24] 50.3% | viability, T/C [25] 89.1% | viability, T/C [26] 90.9% | viability, T/C [27] 83% | viability, T/C [28] 71.3% | viability, T/C [29] 64.5% | viability, T/C [30] 50.3% | viability, T/C [31] 92.2% | viability, T/C [32] 87.7% | viability, T/C [33] 82% | viability, T/C [34] 68.8% | viability, T/C [35] 61.7% | viability, T/C [36] 42.4%
> 10 µM: IC50 (second compound 0.0316 µM) | IC50 (second compound 0.1 µM) | IC50 (second compound 0.316 µM) | IC50 (second compound 1 µM) | IC50 (second compound 3.16 µM)
6.14 µM: IC50 (second compound 10 µM)
